Here are results for 40 compounds from patent US4695569A, “Bicyclic heterocyclyl containing N-(bicyclic heterocyclyl)-4-piperidinamines” (Janssen Pharmaceutica N.V., priority 1987, dated 1987).

One assay has as its system serotonin. Put plainly: Antagonistic activity on the effects of serotonin in the gastric lesion test (lesions induced by compound 48/80). The class given is in vivo, rat (male, Wistar inbred strain). The source says:
The compounds of formula (I) and the pharmaceutically acceptable acid addition salts thereof are also potent serotonin-antagonists. The potency of the subject compounds as serotonin-antagonists is clearly evidenced by the results obtained in the following tests wherein the antagonistic activity of the subject compounds on the effect of serotonin is examined.
Antagonistic activity on the effects of serotonin in the gastric lesion test
Comound 48/80 (a mixture of oligomers obtained by condensation of 4-methoxy-N-methylbenzeneethanamine and formaldehyde) is a potent releaser of vasoactive amines from endogenous stores such as, for example, histamine and serotonin. […] The shock, followed by dead, can be avoided if the rats are pretreated with a classical H 1 antagonist.
Male rats of a Wistar inbred strain, weighing 220-250 g, were starved overnight, water being available ad libitum. The test compounds were administered orally as a solution or as a suspension in aqueous medium. A control rat and a "blank" rat received the test compound. One hour later 5-[4-(diphenylmethyl)-1-piperazinylmethyl]-1-methyl-1H-benzimidazole-2-methanol was administered subcutaneously to all rats at the dose of 2.5 mg/kg.
Four hours after the intravenous injection of compound 48/80, the rats were decapitated and the stomachs were removed. Subsequently the stomachs ere inspected for distension and contents (blood, fluid, food) and thoroughly rinsed. The macroscopic lesions were scored from 0 to +++, 0 corresponding to complete absence of visible lesions and the highest score corresponding to reddish rough patches covering more than half the glandular area.

Assay [1] deals with compound 48/80-induced lethality. Put plainly: Protection of rats from compound 48/80-induced lethality. To be noted: Rattus norvegicus, 4 h, read-out: Compound 48/80 lethality test in rats-ED50. Format: in vivo, rat (male, inbred Wistar strain). The protocol: Protection of rats from compound 48/80-induced lethality
The protection from compound 48/80-induced lethal circulatory collapse appears to be a simple way of evaluating quantitatively the antihistaminic activity of test compounds. Male rats of an inbred Wistar strain, weighing 240-260 g were used in the experiment. After overnight starvation the rats were transferred to conditioned laboratories (temp.=21±1° C., relative humidity=65±5%).
The rats were treated subcutaneously or orally with a test compound or with the solvent (NaCl solution, 0.9%). […] Survival after 4 hours is therefore considered to be a safe criterion of a protective effect of drug administration.
The ED50 -values of the compounds of formula (I) are listed in the first column of table 1. Said ED50 -values are the values in mg/kg body weight at which the tested compounds protect 50% of the tested animals against compound 48/80-induced lethality.

The mark [2] stands for this setting: Rattus norvegicus, po, 4 h; read-out: gastric lesion test ED50 (distension of the stomach and lesions in the glandular area completely absent in 50% of rats).
Where [3] appears, read: Rattus norvegicus, po, 4 h, read-out: gastric lesion test ED50 (distension of the stomach and lesions in the glandular area completely absent in 50% of rats).

The structures appear in SMILES notation. Like-named read-outs stand apart in the source and are kept apart here.

As to `Cc1nc2n(c(=O)c1CCN1CCC(Nc3nc4ccccc4n3Cc3ccc(F)cc3)CC1)CCS2` [Compound 17], the ED50 was 0.63 mg/kg with serotonin (setting [2]) and 0.31 mg/kg in assay [1].
Regarding `Cc1nc2n(c(=O)c1CCN1CCC(Nc3nc4ccccc4n3Cc3ccco3)CC1)CCS2` [Compound 18], the ED50 in the assay with serotonin (setting [2]) was found to be 0.16 mg/kg; in assay [1], 0.08 mg/kg.
In the same order, the values of `Cc1nc2ccccn2c(=O)c1CCN1CCC(Nc2nc3ccccc3n2Cc2cscn2)CC1` [Compound 19] are 0.01 mg/kg and 0.08 mg/kg.
For `Cc1ccc2nc(C)c(CCN3CCC(Nc4nc5cccnc5n4Cc4ccco4)CC3)c(=O)n2c1` [Compound 20] the same measures were 0.63 mg/kg and 0.04 mg/kg.
For `Cc1nc2ccc(Cl)cn2c(=O)c1CCN1CCC(Nc2nc3cccnc3n2Cc2ccco2)CC1` [Compound 21] the same measures were 0.63 mg/kg and 0.04 mg/kg.
For the compound `O=c1[nH]c2ccccc2c(=O)n1CCN1CCC(Nc2nc3ccccc3n2Cc2ccco2)CC1` [Compound 24], the figures for the ED50 (in the assay with serotonin (setting [2]); in assay [1]) were 0.63 mg/kg and 0.08 mg/kg, respectively.
In the case of `Cc1nc2sccn2c(=O)c1CCN1CCC(Nc2nc3cccnc3n2Cc2ccco2)CC1` [Compound 28], the ED50 in the assay on serotonin (setting [3]) was 0.16 mg/kg; in assay [1], 0.04 mg/kg.
As to `Cc1nc2sccn2c(=O)c1CCN1CCC(Nc2nc3ccccc3n2Cc2ccco2)CC1` [Compound 31], the results for the ED50 (in the assay on serotonin (setting [2]); in assay [1]) were 0.02 mg/kg and 0.04 mg/kg, respectively.
In the same order, the values of `Cn1c(=O)n(CCN2CCC(Nc3nc4ccccc4n3Cc3ccco3)CC2)c(=O)c2ccccc21` [Compound 34] are 0.16 mg/kg and 0.08 mg/kg.
In the same order, the values of `Cn1c(=O)c2c(ncn2CCN2CCC(Nc3nc4ccccc4n3Cc3ccco3)CC2)n(C)c1=O` [Compound 39] are 0.63 mg/kg and 0.16 mg/kg.
For the compound `Fc1ccc(Cn2c(NC3CCN(Cc4cn5cccnc5n4)CC3)nc3ccccc32)cc1` [Compound 40], the ED50 (in the assay with serotonin (setting [3]); in assay [1]) was 0.16 mg/kg throughout.
As for `Fc1ccc(Cn2c(NC3CCN(Cc4cn5ccccc5n4)CC3)nc3ccccc32)cc1` [Compound 41], the figures for the ED50 (with serotonin (setting [2]); in assay [1]) were 0.63 mg/kg and 0.16 mg/kg, respectively.
For `Fc1ccc(Cn2c(NC3CCN(Cc4cn5ccncc5n4)CC3)nc3ccccc32)cc1` [Compound 49], the figures for the ED50 (in the assay on serotonin (setting [2]); in assay [1]) were 0.63 mg/kg and 0.16 mg/kg, respectively.
Consider `Cc1nc2ccccn2c(=O)c1CCN1CCC(Nc2nc3ccccc3n2Cc2cccs2)CC1` [Compound 52], for which the ED50 in the assay with serotonin (setting [3]) came out at 1.25 mg/kg; in assay [1], 0.31 mg/kg.
Take `Cc1nc2ccccn2c(=O)c1CCN1CCC(Nc2nc3cccnc3n2Cc2ccccn2)CC1` [Compound 55]: the values for the ED50 (with serotonin (setting [2]); in assay [1]) were 0.16 mg/kg and 0.08 mg/kg, respectively.
For the compound `Cc1nc2n(c(=O)c1CCN1CCC(Nc3nc4cccnc4n3Cc3ccco3)CC1)CC(C)CC2` (centres unmarked) [Compound 58], the ED50 with serotonin (setting [2]) was 0.63 mg/kg; in assay [1], 0.04 mg/kg.
As for `Cc1nc2n(c(=O)c1CCN1CCC(Nc3nc4ccccc4n3Cc3cccs3)CC1)CCCC2` [Compound 59], the values for the ED50 (in the assay on serotonin (setting [2]); in assay [1]) were 0.31 mg/kg and 0.08 mg/kg, respectively.
`Cc1nc2n(c(=O)c1CCN1CCC(Nc3nc4cccnc4n3Cc3ccc(F)cc3)CC1)CCCC2` [Compound 61]: the ED50 was found to be 0.31 mg/kg in the assay on serotonin (setting [2]) and 0.04 mg/kg in assay [1].
On to `Cc1nc2n(c(=O)c1CCN1CCC(Nc3nc4ccccc4n3Cc3cscn3)CC1)CCCC2` [Compound 62], for which the ED50 in the assay with serotonin (setting [3]) was determined as 0.63 mg/kg; in assay [1], 0.04 mg/kg.
`Cc1nc2n(c(=O)c1CCN1CCC(Nc3nc4cccnc4n3Cc3ccco3)CC1)C(C)CC(C)C2` (centres unmarked) [Compound 63]: the ED50 stood at 0.63 mg/kg with serotonin (setting [2]) and 0.08 mg/kg in assay [1].
For `Cc1nc2ccccn2c(=O)c1CCN1CCC(Nc2nc3cc(F)c(F)cc3n2Cc2ccc(F)cc2)CC1` [Compound 70] the same measures were 0.63 mg/kg and 0.31 mg/kg.
On to `Cc1ccn2c(=O)c(CCN3CCC(Nc4nc5cccnc5n4Cc4ccco4)CC3)c(C)nc2c1` [Compound 74], for which the ED50 came to 0.16 mg/kg in the assay with serotonin (setting [2]) and 0.04 mg/kg in assay [1].
For `Cc1cc(C)n2c(=O)c(CCN3CCC(Nc4nc5cccnc5n4Cc4ccco4)CC3)c(C)nc2c1` [Compound 77] the same measures were 0.31 mg/kg and 0.16 mg/kg.
In the case of `OCCn1cnc2c(NCCN3CCC(Nc4nc5ccccc5n4Cc4ccc(F)cc4)CC3)ncnc21` [Compound 93, 6-[[2-[4-[[1-[(4-fluorophenyl)methyl]-1H-benzimidazol-2-yl]amino]-1-piperidinyl]ethyl]amino]-9H-purine-9-ethanol], the ED50 in the assay on serotonin (setting [2]) came to 0.16 mg/kg; in assay [1], 0.08 mg/kg.
`Cn1cnc2c(NCCN3CCC(Nc4nc5ccccc5n4Cc4ccc(F)cc4)CC3)ncnc21` [Compound 94]: the ED50 stood at 0.63 mg/kg with serotonin (setting [2]) and 0.31 mg/kg in assay [1].
For the compound `Fc1ccc(Cn2c(NC3CCN(CCNc4ncnc5c4ncn5Cc4ccccc4)CC3)nc3ccccc32)cc1` [Compound 95], the ED50 in the assay with serotonin (setting [2]) was determined as 0.63 mg/kg; in assay [1] it was 0.16 mg/kg.
In the same order, the values of `Fc1ccc(Cn2c(NC3CCN(CCNc4ncnc5[nH]cnc45)CC3)nc3ccccc32)cc1` [Compound 97] are 0.04 mg/kg and 0.08 mg/kg.
In the same order, the values of `Fc1ccc(Cn2c(NC3CCN(CCNc4nc5cccnc5s4)CC3)nc3ccccc32)cc1` [Compound 103, N-[2-[4-[[1-[(4-fluorophenyl)methyl]-1H-benzimidazol-2-yl]amino]-1-piperidinyl]ethyl]thiazolo[5,4-b]pyridin-2-amine] are 0.63 mg/kg and 0.16 mg/kg.
For the compound `Fc1ccc(Cn2c(NC3CCN(CCNc4nc5cnccc5s4)CC3)nc3ccccc32)cc1` [Compound 104, N-[2-[4-[[1-[(4-fluorophenyl)methyl]-1H-benzimidazol-2-yl]amino]-1-piperidinyl]ethyl]thiazolo[4,5-c]pyridin-2-amine], the ED50 with serotonin (setting [2]) came out at 0.31 mg/kg; in assay [1], 0.16 mg/kg.
For `Cn1c(NCCN2CCC(Nc3nc4ccccc4n3Cc3ccc(F)cc3)CC2)nc2cnccc21.O` [Compound 108, N-[2-[4-[[1-[(4-fluorophenyl)methyl]-1H-benzimidazol-2-yl]amino]-1-piperidinyl]ethyl]-1-methyl-1H-imidazo[4,5-c]pyridin-2-amine monohydrate] the same measures were 0.16 mg/kg and 0.04 mg/kg.
As for `Fc1ccc(Cn2c(NC3CCN(CCNc4nc5cnccc5[nH]4)CC3)nc3ccccc32)cc1` [Compound 109], the ED50 (in the assay with serotonin (setting [2]); in assay [1]) was 0.04 mg/kg in each case.
On to `Fc1ccc(Cn2c(NC3CCN(CCNc4nc5ncccc5[nH]4)CC3)nc3ccccc32)cc1` [Compound 110], for which the ED50 in the assay on serotonin (setting [2]) turned out to be 0.31 mg/kg; in assay [1], 0.16 mg/kg.
Regarding `c1coc(Cn2c(NC3CCN(CCNc4nc5cnccc5[nH]4)CC3)nc3ccccc32)c1` [Compound 111], the ED50 with serotonin (setting [2]) was found to be 0.08 mg/kg; in assay [1], 0.02 mg/kg.
In the same order, the values of `Fc1ccc(Cn2c(NC3CCN(CCNc4nc5cnccc5[nH]4)CC3)nc3ncccc32)cc1` [Compound 112] are 0.16 mg/kg and 0.02 mg/kg.
In the same order, the values of `Fc1ccc(Cn2c(NC3CCN(CCNc4nc5cnccc5[nH]4)CC3)nc3cccnc32)cc1` [Compound 114] are 0.63 mg/kg and 0.02 mg/kg.
With `c1ccc(Cn2c(NC3CCN(CCNc4nc5cnccc5[nH]4)CC3)nc3ccccc32)nc1` [Compound 115], the results for the ED50 (with serotonin (setting [3]); in assay [1]) were 0.16 mg/kg and 0.02 mg/kg, respectively.
Consider `c1csc(Cn2c(NC3CCN(CCNc4nc5cnccc5[nH]4)CC3)nc3ccccc32)c1` [Compound 117], for which the ED50 in the assay on serotonin (setting [2]) came to 0.31 mg/kg; in assay [1], 0.02 mg/kg.
In the same order, the values of `c1coc(Cn2c(NC3CCN(CCNc4nc5cnccc5[nH]4)CC3)nc3cccnc32)c1` [Compound 119] are 0.63 mg/kg and 0.04 mg/kg.
For `Fc1ccc(Cn2c(NC3CCN(CCCCNc4nc5cnccc5[nH]4)CC3)nc3ccccc32)cc1` [Compound 121, N-[4-[4-[[1-[(4-fluorophenyl)methyl]-1H-benzimidazol-2-yl]amino]-1-piperidinyl]butyl]-1H-imidazo[4,5-c]pyridin-2-amine] the same measures were 0.02 mg/kg and 0.02 mg/kg.
For `Fc1ccc(Cn2c(NC3CCN(CCCNc4nc5cnccc5[nH]4)CC3)nc3ccccc32)cc1` [Compound 122, N-[3-[4-[[1-[(4-fluorophenyl)methyl]-1H-benzimidazol-2-yl]amino]-1-piperidinyl]propyl]-1H-imidazo[4,5-c]pyridin-2-amine ethanedioate(2:7)] the same measures were 0.63 mg/kg and 0.02 mg/kg.
